Reference: patent US20020068346A1, “Modified inosine 5'-monophosphate dehydrogenase polypeptides and uses thereof” (priority 2000, published 2002)

Legend:
“DKT”-IMPDH-II = target: T1, “DKT”-IMPDH-II (Homo sapiens, UniProt P12268, DEL111-240/K241D/Q243T); test: Steady state enzyme kinetics: inhibition of IMPDH-DKT by XMP and MPA; assay type: biochemical; settings: for Inhibition type: steady state kinetics
T1 construct: The full-length, human, type II impdh cDNAs were used as templates; made in house; host or cells: E. coli BL21(DE3), pET24a
T1 sequence (P12268 with tags, fused parts or gaps DEL111-240/K241D/Q243T): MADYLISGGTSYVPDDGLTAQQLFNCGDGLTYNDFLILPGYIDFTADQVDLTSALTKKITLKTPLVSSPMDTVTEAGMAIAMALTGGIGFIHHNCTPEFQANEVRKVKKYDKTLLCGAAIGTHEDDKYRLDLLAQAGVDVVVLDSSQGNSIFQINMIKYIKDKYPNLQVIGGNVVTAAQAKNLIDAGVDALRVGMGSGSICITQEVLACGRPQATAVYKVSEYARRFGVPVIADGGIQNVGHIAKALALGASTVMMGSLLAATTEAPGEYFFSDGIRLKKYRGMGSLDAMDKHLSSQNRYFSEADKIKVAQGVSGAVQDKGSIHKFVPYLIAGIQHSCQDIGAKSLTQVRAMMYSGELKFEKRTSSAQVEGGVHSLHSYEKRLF

[1] = system: conversion of NAD to NADH in the presence of IMP; test: Functional activity of modified IMPDH multimers: conversion of NAD to NADH measured spectrophotometrically at 340 nm; assay type: biochemical, human; settings: partially purified protein, 0.40 mM IMP, 0.40 mM NAD, 37° C.
Description: Polypeptides of the modified IMPDH-DKT, -SPS, -SPT, and -AGRP were isolated and partially purified using a blue dye affinity chromatographic step. All steps were performed at 4° C. unless otherwise noted. The frozen cell pellets (e.g., described in Example 1) were thawed on ice, and resuspended in 10 mL of Buffer A (25 mM Tris, pH 8.2, 20 mM KCl, 10% glycerol (v/v), 1 mM EDTA, 5 mM DTT, and 1 μg/mL leupeptin). The cells were lysed by 2×20 second sonication pulses using a ¼″ Microtip on a Branson model 450 sonifier (set on 2.5 power setting), and excessive foaming was carefully avoided. […] The samples were evaluated for the presence of the modified IMPDH polypeptides and to approximate the purity using standard SDS-PAGE methods, with Coomassie blue staining. For each of the modified IMPDH polypeptides, it was determined that the purity of the Buffer C fractions contained approximately 75% modified IMPDH polypeptide. The total protein content was quantitated using the Bradford assay method (Bradford, M. M., 1976, Anal. Biochem., 72: 248), with Biorad protein reagent (product #500-0006) and using BSA as a protein standard.
To evaluate the functional activity of the modified IMPDH polypeptides, the conversion of NAD to NADH was measured spectrophotometrically at 340 nm, 37° C. […] The production of NADH was determined by δOD^340 (ε=6220 M^−1 cm^−1), measured for 5 min. […]

Compound | Ki (“DKT”-IMPDH-II; buffer D, 50 nM protein) [µM] | Inhibition type (“DKT”-IMPDH-II) | NADH produced [1]
O=c1[nH]c(=O)c2ncn([C@@H]3O[C@H](COP(=O)(O)O)[C@@H](O)[C@H]3O)c2[nH]1 [XMP, xanthosine-5′-monophosphate] | 67 ± 5 | Competitive vs. IMP | –
COc1c(C)c2c(c(O)c1C/C=C(\C)CCC(=O)O)C(=O)OC2 [MPA, Mycophenolic acid] | – | Uncompetitive vs. IMP | –
wild-type IMPDH holoenzyme: wild-type human type II IMPDH holo-enzyme, SEQ ID NO:49 [reference compound] | – | – | approximately 1.00 μmoles/min mg protein
